PubChem BioAssay (NCI)
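Values below derive from 48-hour exposures of cells grown in 96-well plates, with endpoints linearly interpolated between the two concentrations bracketing the appropriate inhibition level. GI50 = concentration required for 50% inhibition of growth. TGI: total growth inhibition.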

Tests used:
Test in all cases: inhibition of tumour cell growth, NCI panel, 48 h
HCT-15 colon = test system: HCT-15 colon
EKVX NSCLC = test system: EKVX NSCLC
A498 renal = test system: A498 renal
HL-60(TB) leukemia = test system: HL-60(TB) leukemia
SK-MEL-5 melanoma = test system: SK-MEL-5 melanoma
OVCAR-5 ovarian = test system: OVCAR-5 ovarian
SK-OV-3 ovarian = test system: SK-OV-3 ovarian
SF-539 CNS = test system: SF-539 CNS
KM12 colon = test system: KM12 colon
IGROV1 ovarian = test system: IGROV1 ovarian
SF-268 CNS = test system: SF-268 CNS
UACC-62 melanoma = test system: UACC-62 melanoma
KM20L2 colon = test system: KM20L2 colon

Structure (SMILES)	TGI (HCT-15 colon)	TGI (EKVX NSCLC)	TGI (A498 renal)	GI50 (HL-60(TB) leukemia)	TGI (HL-60(TB) leukemia)	TGI (SK-MEL-5 melanoma)	GI50 (OVCAR-5 ovarian)	TGI (OVCAR-5 ovarian)	GI50 (SK-OV-3 ovarian)	TGI (SK-OV-3 ovarian)	TGI (SF-539 CNS)	GI50 (KM12 colon)	TGI (KM12 colon)	GI50 (IGROV1 ovarian)	TGI (IGROV1 ovarian)	GI50 (SF-268 CNS)	TGI (SF-268 CNS)	TGI (UACC-62 melanoma)	TGI (KM20L2 colon)
COc1cc2cc(C(=O)N3C[C@H](CCl)c4c3cc(N)c3ccccc43)[nH]c2c(OC)c1OC	> 50 µM	0.0462 µM	0.0318 µM	0.0171 µM	0.164 µM	< 0.005 µM	0.005 µM	0.552 µM	0.0398 µM	0.819 µM	3.3 µM	0.0115 µM	0.0922 µM	0.005 µM	0.393 µM	0.005 µM	1.74 µM	–	–
CCCCOc1ccc(OCCCCCCCCCC[N+](C)(C)C)cc1	30.5 µM	46 µM	28.6 µM	–	1.49 µM	3.81 µM	–	17.2 µM	–	10.8 µM	14.3 µM	–	2.97 µM	–	3.52 µM	–	13.9 µM	15.7 µM	3.87 µM
CN(C)CCNC(=O)c1cc(Cl)cc2ccc(-c3ccccc3)nc12	9.49 µM	21.5 µM	15.8 µM	–	4.88 µM	3.82 µM	–	13.7 µM	–	12.8 µM	9.18 µM	–	22.2 µM	–	14.2 µM	–	19.2 µM	6.36 µM	13.1 µM
CSc1cc(=O)n2c3ccccc3c3ccnc1c32	> 100 µM	56.8 µM	> 100 µM	–	> 100 µM	> 100 µM	–	> 100 µM	–	97.5 µM	> 71.4 µM	–	> 100 µM	–	> 79.1 µM	–	> 75.5 µM	> 100 µM	> 100 µM
O=S(=O)(O)c1ccc(N=Nc2ccc(N=Nc3ccc(/C=C/c4ccc(N=[N+]([O-])c5ccc(/C=C/c6ccc(N=Nc7ccc(N=Nc8ccc(S(=O)(=O)O)cc8)cc7)cc6S(=O)(=O)O)c(S(=O)(=O)O)c5)cc4S(=O)(=O)O)c(S(=O)(=O)O)c3)cc2)cc1	> 100 µM	> 100 µM	> 100 µM	–	> 100 µM	> 100 µM	–	> 100 µM	–	> 100 µM	> 100 µM	–	> 100 µM	–	> 100 µM	–	> 100 µM	> 100 µM	> 100 µM
Cc1cc(C)nc(NS(=O)(=O)c2ccc(Nc3c4ccccc4nc4c(C(=O)N5CCN(CCOS(C)(=O)=O)CC5)cccc34)cc2)n1	> 100 µM	–	> 100 µM	–	> 100 µM	> 100 µM	–	> 100 µM	–	> 100 µM	> 100 µM	–	> 100 µM	–	> 100 µM	–	> 100 µM	> 100 µM	> 100 µM
NCCCCNCCCNC(=O)c1nc(-c2nc(CCN)sc2Cl)sc1Cl	> 100 µM	> 100 µM	> 100 µM	–	> 100 µM	> 100 µM	–	> 100 µM	–	> 100 µM	> 100 µM	–	> 100 µM	–	> 100 µM	–	25.4 µM	> 100 µM	> 100 µM
